# Source: patent EP0218400A1, “Assay methods for chemotherapeutic agents” (DAMON BIOTECH, INC., priority 1985, dated 1987)
# Columns and labels:
# human Melanoma LOX cells = experiment: In vivo susceptibility of encapsulated LOX melanoma cells in nude mice
# Experimental: (§1) In the experiments that follow, the drugs and other agents tested were administered to the host animal by injection at the various times called for in the protocol being tested. At various periods after treatment, the mice were killed by cervical dislocation. The peritoneal cavity of each mouse was washed with PBS or medium and floating microcapsules were aspirated using a large bore plastic Pasteur pipette. Microcapsules were transferred to 15 ml tubes and washed 3 to 4 times with PBS to remove host peritoneal cells. The washed microcapsules were aspirated into 1 ml serological pipettes, allowed to sediment, and the volume of packed microcapsules was determined. Microcapsules were then transferred to a glas dounce homogenizer (7 ml volume) and disrupted with 3 strokes of an A-tolerance plumger. Cells suspensions were filtered through nylon mesh to remove the disrupted membranes. The suspensions containing tumor cells were centrifuged and the pellet was resuspended in 0.25 to 0.5 ml of complete medium. After mixing equal volumes of cell suspension and trypan blue, viable cell counts were determined using a hemocytometer.
# (§2) The number of tumor cells per 1 ml of packed microcapsules was determined as follows: a = ? where b = total number of tumor cells in the suspension, and c = total volume of microcapsules used for the preparation of this suspension.
# (§3) By comparing the number of tumor cells in 1 ml of microcapsules derived from non-treated and drug-treated mice, the percent inhibition of tumor cell growth was calculated: [formula] where ac = number of tumor cells from the non-treated control microcapsules, and ae = number of tumor cells from the drug treated microcapsules.
# In this series of experiments, cells of a fourth human cancer type, Melanoma LOX cells, were used. LOX cells have recently been proposed as the model for experimental treatment at the NCI Development Therapeutics Program. Following i.p. inoculation of the suspension of LOX Melanoma cells into nude mice, various drugs were administered i.v. and survival of the treated mice was determined (Schoemaker et al., Proceeding American Association for Cancer Research, 26, 1302, 1985) (mice transplanted with the non-encapsulated tumor cells were considered tumor-free if they survived during 3 months of observation). In parallel experiments encapsulated LOX Melanoma cells were transferred into nude mice and drugs were inoculated i.v. 1, 5 and 9 days at the dose and schedule utilized by the Dr. Shoemaker's procedure.
# Original P388 cells = experiment: In vivo growth of encapsulated original P388 lymphoma cells in nude mice
# Experimental: as §1, §2, §3
# Since drug-resistance is one of the most important causes of failure in chemotherapy, it is crucial that a predictive assay be able to distinguish between effective and non-effective drugs for particular tumors. […] One day later the mice received by i.v. administration Adriamycin (6 mg/kg), Vinblastin (1 mg/kg) or Cyclophosphamide (100 mg/kg). Five days after administration some of the mice were sacrificed, the microcapsules were recovered and the numbers of tumor cells inside the capsules were determined. The remaining mice received a second administration and the microcapsules were recovered from the remaining mice 3 days afterwards. The results are shown in Table 7 and correlate well with the known characteristics of P388 cell line and its variant.
# [1] = system: MOLT-4 human lymphoma cells; experiment: In vivo sensitivity of encapsulated MOLT-4 cells in nude mice, NCI schedule; settings: Adriamycin 6 mg/kg, 15 days after transplantation
# Experimental: as §1, §2, §3
# In the next experiment various drugs were administered in vivo according to schedules and doses typically used for screening antitumor effects of the drugs at the National Cancer Institute, Developmental Therapeutics program.
# MOLT-4 human lymphoma cells were encapsulated and transplanted into peritoneum of nude mice. Doses of various drugs were applied i.v. at 1, 5 and 9 days after tumor cell transplantation.
# MOLT-4 lymphoma cells = experiment: In vivo inhibition of encapsulated Molt-4 lymphoma growth in C57BL/6 mice; parameters: species or system human
# Experimental: as §1, §2, §3
# MOLT-4 lymphoma cells were also used in an in vivo assay. As before, the MOLT-4 cells were encapsulated and transplanted i.p. into C57BL/6 mice. On day 1 following the transplantation of the encapsulated cells, the mice were treated i.v. intravenous (i.v.) with BCNU, adriamycin or cyclophosphamide (CY). This approach allowed the testing of cyclophosphamide (CY) which is inefficient in vitro because it must be metabolized to obtain an active cytotoxic derivative. Ten days after transplantation, the encapsulated cells were retrieved and the tumor cells contained therein were counted. […]
# [2] = system: human lung carcinoma A549 cells; experiment: In vivo susceptibility of encapsulated A549 cells; settings: i.v. days 2, 5, 9; for No. of tumor cells per 1 ml of capsules / percent Inhibition: Adriamycin 6, BCNU 20, CY 100 mg/kg
# Experimental: as §1, §2, §3
# The sensitivity of human lung carcinoma A549 cells to the drugs was assessed 12 and 14 days after transplantation of encapsulated tumor cells. The treatments were applied i.v. 2, 5 and 9 days after microcapsule transplantation (Table 5).
# LOX Melanoma cells = settings: i.v.; Adriamycin 6, BCNU 20, CY 100, 5-Fu 60 mg/kg; survival during 3 months of observation; nude mice; cited from earlier work
# [3] = system: human colon adenocarcinoma (HT-29) cells; experiment: In vivo growth of encapsulated HT-29 cells in C57BL/6 mice; settings: for inhibition at 20 mg/kg: Mus musculus; for No. of cells per capsule / Total No. of tumor cells: 4 days
# Experimental: as §1, §2, §3
# A second human cancer cell line was also used to further analyze in vivo effects of different drugs on the growth of tumors. Encapsulated human colon adenocarcinoma (HT-29) cells were again transplanted into C57BL/6 mice and various drugs were administered after 3 days either by intravenous or by intraperitoneal injection. Animals were sacrificed after 4 days and number of cells per capsule were counted to calculate inhibition rates for the various treatment procedures. […] In fact, 5-FU is a preferred chemotherapeutic agent for patients with gastrointestinal malignancies.
# [4] = 5 + 3 days after treatment (3 days after second administration), Adriamycin 6, Vinblastin 1, Cyclophosphamide 100 mg/kg i.v.
# [5] = 5 days after treatment, i.v. one day after inoculation, Adriamycin 6, Vinblastin 1, Cyclophosphamide 100 mg/kg
# [6] = i.v. on day 1, Adriamycin 10 mg/kg, BCNU 100 mg/kg, CY 200 mg/kg, capsules retrieved ten days after transplantation
# [7] = i.p. 3 days after transplantation, 5-Fu 150 mg/kg, CY 250 mg/kg, Adriamycin 20 mg/kg
# [8] = i.v. 20 mg/kg 3 days after transplantation
smiles,measurement,setting,value
COc1cccc2c1C(=O)c1c(O)c3c(c(O)c1C2=O)C[C@@](O)(C(=O)CO)C[C@@H]3O[C@H]1C[C@H](N)[C@H](O)[C@H](C)O1 [Adriamycin],sensitivity of encapsulated LOX cells to the treatment (in words),"human Melanoma LOX cells; i.v. days 1, 5, 9",most sensitive
same,No. of viable tumor cells per 1 ml. of capsules,"human Melanoma LOX cells; i.v. days 1, 5, 9, Adriamycin 6, BCNU 20, CY 100, 5-Fu 60 mg/kg",6 x 10^5
same,% Inhibition,Original P388 cells; [4],92%
same,No. cells/ml,Original P388 cells; [4],4 x 10^6
same,% Inhibition,Original P388 cells; [5],64%
same,No. cells/ml,Original P388 cells; [5],8 x 10^6
same,inhibition of tumor cell proliferation (in words),"[1]; 5-FU 60 mg/kg i.v. days 1, 5, 9",dramatic inhibition of tumor cell proliferation
same,inhibition at 6 mg/kg,"[1]; Mus musculus, MOLT-4, iv, 360 h, i.v. days 1, 5, 9, Cyclophosphamide 100 mg/kg, 5-Fu 60 mg/kg, nude mice",95%
same,No of viable tumor cells per 1 ml of capsules,"[1]; i.v. days 1, 5, 9, Cyclophosphamide 100 mg/kg, 5-Fu 60 mg/kg, nude mice",2.7 x 10^6
same,inhibition at 10 mg/kg,"MOLT-4 lymphoma cells; Mus musculus, MOLT-4, iv, i.v. on day 1, Adriamycin 10 mg/kg, BCNU 100 mg/kg, CY 200 mg/kg, capsules retrieved ten days after transplantation",91.3%
same,reduction of the number of viable tumor cells in the capsules (in words),"MOLT-4 lymphoma cells; i.v. on day 1, ten days after transplantation",more effective than BCNU
same,No. of cells per capsule,MOLT-4 lymphoma cells; [6],237
same,Total No. of tumor cells,MOLT-4 lymphoma cells; [6],8 x 10^4
same,No. of tumor cells per 1 ml of capsules,[2]; 12 days after transplantation,9.0 x 10^5
same,percent Inhibition,[2]; 12 days after transplantation,85%
same,No. of tumor cells per 1 ml of capsules,[2]; 14 days after transplantation,13.5 x 10^5
same,percent Inhibition,[2]; 14 days after transplantation,84%
same,reduction of the numbers of tumor cells (in words),[2],more efficient in this respect than CY
same,% survived mice transplanted with nonencapsulated tumor cells,LOX Melanoma cells,33%
same,inhibition at 20 mg/kg,"[3]; HT-29, ip",45%
same,inhibition at 20 mg/kg,"[3]; HT-29, iv",50%
same,No. of cells per capsule,[3]; [7],1.1 x 10^4
same,Total No. of tumor cells,[3]; [7],5.8 x 10^5
same,No. of cells per capsule,[3]; [8],1 x 10^4
same,Total No. of tumor cells,[3]; [8],1.2 x 10^6
